Molecules are shown by their SMILES.

In turn, `O=C(C=C1CCN(Cc2ccccc2)CC1)Nc1ccc2[nH]ncc2c1` had a melting point of 169 to 172 °C.
As to `O=C(O)CCC(=O)Nc1ccc2[nH]ncc2c1`, the melting point is 218 to 220 °C (dec.).
Take `COc1ccc(CN[C@H]2CCC[C@@H](Oc3ccc4[nH]ncc4c3C)C2)cc1` (relative stereo): the melting point was 164 to 166 °C.
In the case of `CC(C)CCCOc1ccc2[nH]ncc2c1` it was 124 to 126 °C.
As for `Cn1cc2cc(NC3CCNCC3)ccc2n1`, the melting point fell in the range of 144 to 147 °C.
`N[C@H]1CC[C@@H](Oc2ccc3[nH]ncc3c2)CC1`: the melting point is 144 to 146 °C.
In the case of `CCC(=O)N[C@H]1CC[C@@H](Oc2ccc3[nH]ncc3c2SC)CC1` it was 155 to 156 °C.
Turning to `CCCN1C2CCC1CC(Nc1ccc3[nH]ncc3c1)C2.Cl.Cl` (stereo not shown), the melting point is 198 to 203 °C.
`CSc1c(O[C@H]2CC[C@@H](NC(=O)c3ccccc3)CC2)ccc2[nH]ncc12` had a melting point of 146 to 148 °C.
In the case of `CNc1ccc2[nH]ncc2c1` it was 144 to 146 °C; in that of `c1cc(OC2CCNCC2)c2cn[nH]c2c1`, 162 to 165 °C.
`Cc1c(OC2CCN(C(C)C)CC2)ccc2[nH]ncc12` returned a melting point of 134 to 136 °C.
Turning to `O=C1c2ccccc2C(=O)N1[C@H]1CCC[C@H](Oc2ccc3[nH]ncc3c2)C1` (relative stereo), the melting point fell in the range of 197 to 198 °C.
In the case of `N[C@H]1CCC[C@H](Oc2ccc3[nH]ncc3c2Cl)C1` (relative stereo) it was 142 to 144 °C.
The compound `CCN[C@H]1CC[C@H](Oc2ccc3[nH]ncc3c2C)CC1` returned a melting point of 150 to 151 °C.
In the case of `O=C(NC1CCOCC1)c1ccc2[nH]ncc2c1` it was 285 to 286 °C; in that of `CC(C)COc1ccc2[nH]ncc2c1`, 151 to 153 °C.
`CCN[C@H]1CCC[C@H](Oc2ccc3[nH]ncc3c2)C1` (relative stereo) gave a melting point of 116 to 118 °C.
The same measure for `O=C(CN1CCCCC1)Nc1ccc2[nH]ncc2c1`: 189 to 190 °C; for `c1cc2[nH]ncc2cc1NCCC1CCNCC1`: 184 to 186 °C (dec.); for `c1cc2[nH]ncc2cc1OC1CCCNCC1` (stereo not shown): 159 to 160 °C.
The compound `O=C(CC1CCN(Cc2ccccc2)CC1)Nc1ccc2[nH]ncc2c1` came in with a melting point of 195 to 197 °C.
`Cc1c(O[C@H]2CCC[C@H](NC3CCCC3)C2)ccc2[nH]ncc12` (relative stereo) returned a melting point of 110 to 112 °C.
Turning to `c1cc2cn[nH]c2cc1NC1CCNCC1`, the melting point was 196 to 197 °C (dec.).
`CN1CCCC(NC(=O)c2ccc3[nH]ncc3c2)C1` (stereo not shown): the melting point lay within 228 to 229 °C.
For the compound `CN(C)C(=O)c1ccccc1Nc1ccc2[nH]ncc2c1`, the melting point was 234 to 235 °C (dec.).
Compound `N[C@H]1CCC[C@H](Oc2ccc3[nH]ncc3c2)C1` (relative stereo) showed a melting point of 179 to 180 °C.
On to `O=C1c2ccccc2C(=O)N1[C@H]1CC[C@@H](Oc2ccc3[nH]ncc3c2)CC1`, for which the melting point fell in the range of 194 to 196 °C.
The compound `O=C(CCN1CCCCC1)Nc1ccc2[nH]ncc2c1` came in with a melting point of 178 to 179 °C.
The same measure for `O=C(c1ccc2[nH]ncc2c1)N1CCNCC1`: 190 to 191 °C; for `COc1ccc2[nH]ncc2c1C`: 148 to 149 °C; for `CN(C)CCC(=O)Nc1ccc2[nH]ncc2c1`: 152 to 153 °C.
In the case of `COc1ccc2ccccc2c1CNc1ccc2[nH]ncc2c1` it was 183 to 185 °C; in that of `Cc1c(OC2=CC=CNC=C2)ccc2[nH]ncc12`, 157 to 159 °C; in that of `c1cc2[nH]ncc2cc1NC1CC2CCC(C1)N2` (stereo not shown), 236 to 238 °C.
`Cl.Cl.c1cc(NC2CCNCC2)c2cn[nH]c2c1`: the melting point lay within 270 to 271 °C.
`COCCC(=O)Nc1ccc2[nH]ncc2c1` yielded a melting point of 173 to 174 °C.
For `CC(=O)N1CCC(Oc2ccc3[nH]ncc3c2C)CC1`, the melting point lay within 161 to 163 °C.
Compound `CC(C)N1CCC(Nc2ccc3[nH]ncc3c2)CC1` displayed a melting point of 140 to 141 °C.
Regarding `CS(=O)(=O)N1CCC(Nc2ccc3[nH]ncc3c2)CC1`, the melting point is 219 to 220 °C (dec.).
The same measure for `Cc1c(OC2CCCNC2)ccc2[nH]ncc12` (stereo not shown): 183 to 185 °C; for `CSc1c(O)ccc2[nH]ncc12`: 126 to 128 °C; for `CC(=O)N1CCC(Nc2ccc3[nH]ncc3c2)CC1`: 193 to 195 °C (dec.).
Compound `c1ccc(CN2CCN(Cc3ccc4[nH]ncc4c3)CC2)cc1` had a melting point of 147 to 149 °C.
`c1cc2[nH]ncc2cc1OC1CCCCC1` yielded a melting point of 144 to 146 °C.
On to `O=C(NC1CCCNC1)c1ccc2[nH]ncc2c1` (stereo not shown), for which the melting point is 265 to 266 °C.
The same measure for `Cc1c(OC2CCN(C3CCCC3)CC2)ccc2[nH]ncc12`: 140 to 143 °C; for `CN(CC(=O)Nc1ccc2[nH]ncc2c1)Cc1ccccc1`: 159 to 160 °C.
`CN(C)[C@H]1CCC[C@H](Oc2ccc3[nH]ncc3c2)C1` (relative stereo) had a melting point of 134 to 135 °C.
The compound `Cl.Cl.c1cc2[nH]ncc2cc1NC1CN2CCC1CC2` (stereo not shown) came in with a melting point of 184 to 188 °C.
Regarding `N[C@H]1CCC[C@@H](Oc2cccc3[nH]ncc23)C1` (relative stereo), the melting point was in the range of 166 to 168 °C.
With `CS(=O)(=O)N1CCC(C(=O)Nc2ccc3[nH]ncc3c2)CC1`, the melting point is 291 to 293 °C (dec.).
`CC(C)N1CCC(Oc2ccc3[nH]ncc3c2)CC1` yielded a melting point of 125 to 126 °C.
In turn, `O=C(CCOCc1ccccc1)Nc1ccc2[nH]ncc2c1` came in with a melting point of 167 to 169 °C.
The compound `CN(CCCC(=O)Nc1ccc2[nH]ncc2c1)Cc1ccccc1` yielded a melting point of 115 to 117 °C.
In the case of `Cc1c(O[C@@H]2CCC[C@H](NC(=O)C3CCCC3)C2)ccc2[nH]ncc12` (relative stereo) it was 242 to 244 °C (dec.).
For the compound `NCc1ccc(COc2ccc3[nH]ncc3c2)cc1`, the melting point was 197 to 198 °C.
In the case of `Cc1c(O[C@H]2CC[C@@H](NC(C)C)CC2)ccc2[nH]ncc12` it was 166 to 168 °C.
`Cc1c(O[C@@H]2CCC[C@H](NCC3CCCC3)C2)ccc2[nH]ncc12` (relative stereo) yielded a melting point of 140 to 142 °C.
Consider `Cc1c(OC2CCCN(C3CCCC3)CC2)ccc2[nH]ncc12` (stereo not shown), for which the melting point lay within 126 to 131 °C.
`O=S(=O)(c1ccccc1)N1CCC(Nc2ccc3[nH]ncc3c2)CC1` returned a melting point of 132 to 136 °C.
Compound `NCc1cccc(COc2ccc3[nH]ncc3c2)c1` showed a melting point of 179 to 183 °C.
On to `O=C(O)C(F)(F)F.c1cc2[nH]ncc2cc1NC1CCOCC1`, for which the melting point was 242 to 245 °C (dec.).
For the compound `c1ccc(CN2CCN(c3ccc4[nH]ncc4c3)CC2)cc1`, the melting point was 196 to 198 °C (dec.).
With `O=C(NC1CCCN(Cc2ccccc2)C1)c1ccc2[nH]ncc2c1` (stereo not shown), the melting point fell in the range of 203 to 204 °C.
In the case of `CSc1c(O[C@H]2CC[C@@H](N3C(=O)c4ccccc4C3=O)CC2)ccc2[nH]ncc12` it was 211 to 212 °C.
For `CN(c1ccc2[nH]ncc2c1)C1CCNCC1`, the melting point fell in the range of 175 to 177 °C.

As usually defined, the melting point is the temperature, or range, at which the solid turns liquid.

(Values after US7199147B2, “Rho kinase inhibitors” (Dainippon Sumitomo Pharma Co., Ltd., priority 2001, dated 2007).)
